Biological target: T1, STK33 (Homo sapiens, UniProt Q9BYT3)
Test: NanoBRET target engagement intracellular kinase assay
Assay type: cell-based
Design: host or cells: HEK293 (HEK293T cultured)
Details: HEK293 cells, 2 hours incubation
Protocol: NanoBRET Target Engagement intracellular kinase assay. HEK293T cells were cultured in […]
The cell line underwent authentication by short tandem repeat (STR) profiling at Cytogenetics and Cell Authentication Core (CCAC) at MD Anderson Cancer Center. NanoBRET Target Engagement intracellular kinase assay, K-10 assay (Cat. # N2641), K-9 assay (Cat. # N2631), transfection reagent FuGENE HD (Cat. # E2311), transfection carrier DNA (Cat. # E4881), NanoLuc-STK33 fusion vector (Cat. # NV2111), NanoLuc-RET fusion vector (Cat. # NV1951), NanoLuc-CLK1 fusion vector (Cat. # NV1131), NanoLuc-CLK2 fusion vector (Cat. # NV1141), and NanoLuc-CLK4 fusion vector (Cat. # NV1151) were purchased from Promega. The measurement of test compound engagement with cellular target protein was performed in a 384-well format according to manufacturer’s instructions. HEK293 cells were transiently transfected with NanoLuc (STK33, RET, CLK1, CLK2, and CLK4) fusion vectors. After 36 hours of transfection, cells were treated with a fixed concentration of tracer (recommended by Promega) followed by compounds (inhibitors) for 2 hours of incubation. To determine the test compound […]
0.4 nM at a fixed tracer concentration. Staurosporine was measured in parallel as a positive control.
Freshly prepared NanoBRET Nano-Glo substrate plus extracellular NanoLuc inhibitor was then added to initiate the subsequent bioluminescence resonance energy transfer (BRET) measurements using a CLARIOstar Plus BMG LABTECH plate reader. Data analysis was done by measuring the ratio of acceptor emission to donor emission (BRET ratio) and normalized by subtracting no-tracer-control-background. IC50 values were obtained by nonlinear regression using a four-parameter equation in GraphPad Prism 7 (San Diego, CA).

T1 sequence (Q9BYT3 whole entry): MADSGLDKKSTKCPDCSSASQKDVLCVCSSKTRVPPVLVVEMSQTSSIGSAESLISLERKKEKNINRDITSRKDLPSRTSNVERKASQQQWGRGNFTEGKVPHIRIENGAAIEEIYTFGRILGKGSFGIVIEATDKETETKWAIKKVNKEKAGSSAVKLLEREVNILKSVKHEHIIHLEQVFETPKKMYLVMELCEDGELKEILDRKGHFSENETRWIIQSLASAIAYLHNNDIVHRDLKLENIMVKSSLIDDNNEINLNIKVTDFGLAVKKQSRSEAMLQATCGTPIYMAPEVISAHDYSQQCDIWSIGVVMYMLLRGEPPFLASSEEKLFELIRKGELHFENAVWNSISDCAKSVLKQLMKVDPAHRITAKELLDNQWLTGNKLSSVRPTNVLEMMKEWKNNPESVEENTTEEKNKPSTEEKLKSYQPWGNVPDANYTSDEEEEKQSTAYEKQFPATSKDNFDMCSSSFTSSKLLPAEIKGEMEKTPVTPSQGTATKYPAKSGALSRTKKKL

Row | Molecule | IC50
1 | O=C(c1ccc2[nH]nc(C#Cc3ccccc3-c3ccccc3)c2c1)N1CCC(O)C1 (stereo not shown) [Compound S2] | 647 nM
2 | CN(C)C1CCN(C(=O)c2ccc3[nH]nc(C#Cc4cccc(-c5ccccc5)c4)c3c2)C1 (stereo not shown) [Compound S9] | 289 nM
3 | CN(C)C1CCN(C(=O)c2ccc3[nH]nc(C#Cc4ccc(-c5ccccc5)cc4)c3c2)C1 (stereo not shown) [Compound S10] | 8710 nM

Second part, the molecule after the results:

Row | IC50 | Molecule
4 | 236 nM | O=C(c1ccc2[nH]nc(C#Cc3ccccc3-c3ccccc3)c2c1)N1CC2(CCCCN2)C1 [Compound S6]
5 | 517 nM | O=C(c1ccc2[nH]nc(C#Cc3ccccc3-c3ccccc3)c2c1)N1CCC2(CCCNC2)C1 (stereo not shown) [Compound S4]

Biological target: T1, STK33
Test: LanthaScreen binding assay (ThermoFisher SelectScreen)
Design: purchased SelectScreen Services (ThermoFisher)
Details: not given
Text: (§1) In vitro biochemical assays. Several small molecule assays were outsourced to SelectScreen Services (ThermoFisher) for STK33 and for off-target kinases (data sets are available on demand).
(§2) These assays are LanthaScreen (binding assay) and Z’-LYTE (activity assay). Dose-responses were done with at least 5 different concentrations in duplicates, and parameters were optimized by calculations described below and provided with standard errors.
(§3) Calculation of Kd values for kinase inhibitors that bind to the ATP pocket of a kinase from LanthaScreen binding data. DynaFit (71) was used to fit complex equilibria where a tracer is displaced by a dilution series of a kinase inhibitor. This method relies on the concentration of inhibitor, as well as the concentration of kinase and tracer, and Kd of the tracer. The latter three parameters are tabulated by ThermoFisher for each kinase in the LanthaScreen assay panel. […]
Since Kd and Ki values are defined the same way, in other words, Kd = [E] [I] / [EI] = Ki, Kd and Ki values can be compared. […]

Row | Molecule | Kd
6 | CN(C)C1CCN(C(=O)c2ccc3[nH]nc(C#Cc4cccc(-c5ccccc5)c4)c3c2)C1 (stereo not shown) [Compound S9] | 9.9 ± 2.3 nM
7 | CN(C)C1CCN(C(=O)c2ccc3[nH]nc(C#Cc4ccc(-c5ccccc5)cc4)c3c2)C1 (stereo not shown) [Compound S10] | 17.7 ± 0.7 nM

Biological target: CLK4 (Homo sapiens, UniProt Q9HAZ1)
Test: as above
Design: purchased SelectScreen Services (ThermoFisher)
Details: not given
Text: as §1, §2, §3

Chain of CLK4 (Q9HAZ1 whole entry): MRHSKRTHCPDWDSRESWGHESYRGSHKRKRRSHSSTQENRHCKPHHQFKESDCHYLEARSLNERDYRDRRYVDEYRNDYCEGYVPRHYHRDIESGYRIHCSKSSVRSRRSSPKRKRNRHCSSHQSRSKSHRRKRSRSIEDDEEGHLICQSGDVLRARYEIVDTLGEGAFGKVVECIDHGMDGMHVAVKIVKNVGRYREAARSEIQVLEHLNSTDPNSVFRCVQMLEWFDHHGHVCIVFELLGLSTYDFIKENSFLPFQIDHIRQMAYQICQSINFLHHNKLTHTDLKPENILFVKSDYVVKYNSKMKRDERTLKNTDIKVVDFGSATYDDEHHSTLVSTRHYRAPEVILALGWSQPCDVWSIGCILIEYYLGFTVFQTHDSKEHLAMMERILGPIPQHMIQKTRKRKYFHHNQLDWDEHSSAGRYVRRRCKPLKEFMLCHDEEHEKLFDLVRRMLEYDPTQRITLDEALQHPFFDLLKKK

Row | Kd | Molecule
8 | > 1000 nM | ML281 [reference compound]

Biological target: CLK1 (Homo sapiens, UniProt P49759)
Test: Z'-LYTE activity assay (ThermoFisher SelectScreen)
Assay type: biochemical
Design: purchased SelectScreen Services (ThermoFisher)
Details: [ATP] = Kmapp
Text: as §1
(§4) These assays are LanthaScreen (binding assay) and Z’-LYTE (activity assay). Dose-responses were done with at least 5 different concentrations in duplicates, and parameters were optimized by calculations described below and provided with standard errors. […]
(§5) Calculation of Ki values for kinase inhibitors from Z’-LYTE inhibition data. The Morrison equation with [ATP] = Kmapp for competitive inhibition (GraphPad Prism 7, San Diego, CA) was used to get Ki values. Since Kd and Ki values are defined the same way, in other words, Kd = [E] [I] / [EI] = Ki, Kd and Ki values can be compared. […]

Chain of CLK1 (P49759 whole entry): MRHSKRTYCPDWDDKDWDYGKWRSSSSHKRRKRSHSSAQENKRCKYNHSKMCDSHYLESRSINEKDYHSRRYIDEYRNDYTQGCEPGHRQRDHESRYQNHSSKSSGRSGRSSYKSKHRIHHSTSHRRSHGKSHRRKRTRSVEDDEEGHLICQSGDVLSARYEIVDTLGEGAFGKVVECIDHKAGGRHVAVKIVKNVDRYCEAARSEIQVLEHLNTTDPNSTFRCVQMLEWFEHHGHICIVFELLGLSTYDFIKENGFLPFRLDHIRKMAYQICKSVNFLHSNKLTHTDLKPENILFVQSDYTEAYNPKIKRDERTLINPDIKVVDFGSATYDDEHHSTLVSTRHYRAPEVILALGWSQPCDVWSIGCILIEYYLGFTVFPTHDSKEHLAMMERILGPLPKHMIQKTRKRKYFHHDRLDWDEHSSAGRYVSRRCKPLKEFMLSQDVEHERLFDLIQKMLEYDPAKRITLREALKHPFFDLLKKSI

Row | Ki | Molecule
9 | > 1000 nM | ML281 [reference compound]

Biological target: CLK2 (Homo sapiens, UniProt P49760)
Test: Z'-LYTE activity assay (ThermoFisher SelectScreen)
Assay type: biochemical
Design: purchased SelectScreen Services (ThermoFisher)
Details: [ATP] = Kmapp
Text: as §1, §4, §5

Chain of CLK2 (P49760 whole entry): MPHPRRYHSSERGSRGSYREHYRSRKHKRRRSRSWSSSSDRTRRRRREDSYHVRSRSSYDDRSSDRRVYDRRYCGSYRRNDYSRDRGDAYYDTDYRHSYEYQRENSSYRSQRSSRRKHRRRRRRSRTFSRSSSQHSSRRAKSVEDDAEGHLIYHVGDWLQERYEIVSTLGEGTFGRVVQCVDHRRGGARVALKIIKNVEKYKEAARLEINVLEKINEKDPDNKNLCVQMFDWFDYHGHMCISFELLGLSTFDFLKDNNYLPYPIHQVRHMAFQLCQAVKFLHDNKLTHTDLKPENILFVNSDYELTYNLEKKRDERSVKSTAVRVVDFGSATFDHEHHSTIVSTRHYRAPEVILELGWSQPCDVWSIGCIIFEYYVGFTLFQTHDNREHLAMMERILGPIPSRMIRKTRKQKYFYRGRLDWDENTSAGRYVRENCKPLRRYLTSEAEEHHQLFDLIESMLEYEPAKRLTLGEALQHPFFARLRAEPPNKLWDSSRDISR

Row | Ki | Molecule
10 | > 1000 nM | ML281 [reference compound]

Biological target: RET (Homo sapiens, UniProt P07949)
Test: Z'-LYTE activity assay (ThermoFisher SelectScreen)
Assay type: biochemical
Design: purchased SelectScreen Services (ThermoFisher)
Details: [ATP] = Kmapp
Text: as §1, §4, §5

Chain of RET (P07949 29-1114): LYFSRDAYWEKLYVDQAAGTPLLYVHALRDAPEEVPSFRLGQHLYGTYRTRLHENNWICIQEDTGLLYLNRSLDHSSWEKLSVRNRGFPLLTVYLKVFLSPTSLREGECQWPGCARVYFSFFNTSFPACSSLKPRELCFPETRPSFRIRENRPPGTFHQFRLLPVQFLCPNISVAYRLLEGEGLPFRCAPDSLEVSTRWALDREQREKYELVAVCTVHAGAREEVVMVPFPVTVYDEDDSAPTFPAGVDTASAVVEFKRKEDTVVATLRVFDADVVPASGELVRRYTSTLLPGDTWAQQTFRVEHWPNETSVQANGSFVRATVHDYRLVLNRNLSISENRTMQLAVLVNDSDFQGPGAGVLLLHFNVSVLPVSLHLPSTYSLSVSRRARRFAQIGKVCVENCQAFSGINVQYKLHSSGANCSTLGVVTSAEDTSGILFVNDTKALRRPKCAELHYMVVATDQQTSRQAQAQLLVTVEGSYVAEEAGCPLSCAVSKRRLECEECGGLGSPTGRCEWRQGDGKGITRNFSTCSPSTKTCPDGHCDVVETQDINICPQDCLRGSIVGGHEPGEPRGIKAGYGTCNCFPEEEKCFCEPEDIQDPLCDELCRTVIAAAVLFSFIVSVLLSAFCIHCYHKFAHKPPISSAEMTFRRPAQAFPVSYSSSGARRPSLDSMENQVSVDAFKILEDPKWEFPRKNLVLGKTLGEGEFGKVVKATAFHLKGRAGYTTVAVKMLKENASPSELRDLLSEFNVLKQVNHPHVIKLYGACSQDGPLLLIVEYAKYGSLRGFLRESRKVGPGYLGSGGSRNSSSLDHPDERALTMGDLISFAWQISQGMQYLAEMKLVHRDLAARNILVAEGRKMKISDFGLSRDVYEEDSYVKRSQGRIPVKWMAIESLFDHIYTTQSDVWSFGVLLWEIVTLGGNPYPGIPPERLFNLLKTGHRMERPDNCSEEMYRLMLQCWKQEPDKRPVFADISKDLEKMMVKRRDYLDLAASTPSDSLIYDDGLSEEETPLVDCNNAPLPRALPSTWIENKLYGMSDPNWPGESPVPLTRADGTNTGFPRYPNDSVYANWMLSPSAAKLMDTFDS

Row | Ki | Molecule
11 | > 1000 nM | ML281 [reference compound]

Biological target: T1, STK33
Test: Kinase assay screening against STK33 at 500 nM
Assay type: biochemical
Design: purchased SelectScreen Services (ThermoFisher)
Details: not given

Row | Molecule | kinase assay screening against STK33
12 | CN(C)C1CCN(C(=O)c2ccc3[nH]nc(Cc4ccccc4-c4ccccc4)c3c2)C1 (stereo not shown) [Compound S11] | not passing
13 | CN(C)C1CCN(C(=O)c2ccc3c(c2)c(C#Cc2ccccc2-c2ccccc2)nn3C)C1 (stereo not shown) [Compound S8] | not passing

Reference: publication PMC11842024, “Reversible male contraception by targeted inhibition of serine/threonine kinase 33” (Science (New York, N.Y.), 2024)
